The target in data set [1] is T1, B7-1/CD28 (Homo sapiens, UniProt P33681).
T1 sequence (P33681 35-242 limits assumed): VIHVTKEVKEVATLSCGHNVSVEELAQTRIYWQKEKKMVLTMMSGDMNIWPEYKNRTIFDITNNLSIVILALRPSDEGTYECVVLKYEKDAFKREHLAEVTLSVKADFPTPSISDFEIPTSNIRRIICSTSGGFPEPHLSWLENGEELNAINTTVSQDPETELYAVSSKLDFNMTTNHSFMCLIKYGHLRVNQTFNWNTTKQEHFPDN
Kind of data set: CD28/B7-1 ELISA (B7-1/CD28 binding inhibition). Conditions: CD28-Fc coated wells; B7-1-Fc-biotin/streptavidin-alkaline phosphatase detection complex; 1% DMSO. The method, then:
Evaluation of B7-1/CD28 Binding Inhibition for Test Compounds
Wells are coated with 300 ng CD28-Fc in carbonate buffer (pH 9.4) overnight at 4° C., blocked with 1% bovine serum albumin in tris-buffered saline (TBS) for 1 h at 22° C. and washed 3 times in TBS prior to assay. The detection complex is formed as follows: B7-1-Fc-biotin, prepared using NHS-LC-biotin (Pierce #21335) according to the manufacturers instructions (4.1 moles biotinimole Fc), is added at 0.8 ug/ml to streptavidin-alkaline phosphatase (Caltag Sa1008) at 1:1000 in TBS. A solution of test compound in dimethylsulfoxide (1% final) are added to this complex and incubated 30 min at 22° C. Detection complex (+/−inhibitors) is then added to the CD28 coated wells for 25 min at 22° C., washed 5 times with TBS, developed with the colorimetric substrate pNPP (Pierce #34045) in diethanolamine/MgCl2 buffer (pH 9.5) and read at 405 nm. The inhibition constant (IC50) is calculated by subtracting background binding and comparing to uninhibited (DMSO alone) controls. The inhibition constant represents the concentration of test compound required to achieve 50% inhibition.

As usually defined, the IC50 is the concentration at which inhibition is half-maximal. A high value points to weaker potency in that assay. For orientation: melting point means the temperature of the solid-liquid transition. Consider `Cn1ncc2c3[nH]n(-c4ccc(C(=O)N5CCOCC5)cc4)c(=O)c3c(-c3cccc(C(F)(F)F)c3)nc21` [Example 33, 6-methyl-2-[4-(4-morpholinylcarbonyl)phenyl]-4-[3-(trifluoromethyl)phenyl]-1,6-dihydrodipyrazolo[3,4-b:3,4-d]pyridin-3(2H)-one], for which the melting point fell in the range of 287 to 290 °C. Further, the IC50 in data set [1] was 13 nM.
In turn, `Cn1ncc2c3[nH]n(-c4cccc(C(=O)N5CCC[C@@H]5C(=O)O)c4)c(=O)c3c(-c3cccc(C(F)(F)F)c3)nc21` [Example 13, (2R)-1-[3-(6-methyl-3-oxo-4-[3-(trifluoromethyl)phenyl]-3,6-dihydrodipyrazolo[3,4-b:3,4-d]pyridin-2(1H)-yl)benzoyl]-2-pyrrolidinecarboxylic acid] had a melting point of 199 to 202 °C. In data set [1], this compound came in with a half-inhibitory concentration (IC50) of 20 nM.
The matching figures for `COCc1cccc(NC(=O)c2ccc(-n3[nH]c4c(c(-c5cccc(C(F)(F)F)c5)nc5c4cnn5C)c3=O)cc2)c1` [Example 29]: 210 °C (dec.) and 110 nM.
Compound `Cn1ncc2c3[nH]n(-c4ccc(C(=O)N5CCCC(CO)C5)cc4)c(=O)c3c(-c3cccc(C(F)(F)F)c3)nc21` (stereo not shown) [Example 36] registered a melting point of 189.8 to 192.7 °C. Besides, in data set [1], the IC50 was 180 nM.
As for `COC(=O)c1cccc(NC(=O)c2ccc(-n3[nH]c4c(c(-c5cccc(C(F)(F)F)c5)nc5c4cnn5C)c3=O)cc2)c1` [Example 42], the melting point is 220 to 222 °C. For the same compound, in data set [1], the IC50 worked out at 94 nM.
Turning to `Cn1ncc2c3[nH]n(-c4ccc(Cl)c(C(=O)NCc5ccc(O)c(O)c5)c4)c(=O)c3c(-c3cccc(C(F)(F)F)c3)nc21` [Example 21], the melting point is 212 to 215 °C. Moreover, the half-maximal inhibitory concentration (IC50) in data set [1] came out at 22 nM.
Compound `Cn1ncc2c3[nH]n(-c4ccc(Cl)c(C(=O)N5CCC[C@@H]5C(=O)O)c4)c(=O)c3c(-c3cccc(C(F)(F)F)c3)nc21` [Example 22, 1-{2-chloro-5-[6-methyl-3-oxo-4-[3-(trifluoromethyl)pheny]-3,6-dihydrodipyrazolo[3,4-b:3′,4′-d]pyridin-2(1H)-yl]benzoyl}-D-proline] gave a melting point of 214 to 218 °C. Besides, the IC50 in data set [1] came to 44 nM.
`Cn1ncc2c3[nH]n(-c4cccc(C(=O)NCc5ccc(O)c(O)c5)c4)c(=O)c3c(-c3cccc(C(F)(F)F)c3)nc21` [Example 18, N-(3,4-dihydroxybenzyl)-3-(6-methyl-3-oxo-4-[3-(trifluoromethyl)phenyl]-3,6-dihydrodipyrazolo[3,4-b:3,4-d]pyridin-2(1H)-yl)benzamide] came in with a melting point of 177.7 to 179.8 °C. In addition, in data set [1], the IC50 came out at 9 nM.

Source of the values: patent US6734190B2, “Dihydrodipyrazolopyridinylbenzamide and -sulfonamide inhibitors of B7-1” (Wyeth, priority 2002, dated 2004).
